# Source: patent publication US20210386367A1, “DEVICES AND SYSTEMS FOR GASTROINTESTINAL MICROBIOME DETECTION AND MANIPULATION” (Progenity, Inc., priority 2018, published 2021)
# Where “and” joins values, the source holds several entries; their conditions need not be identical. Equal values may be shown once. Read-outs that look alike come from different tables or passages of the source.
# Columns and labels:
# [1] = tested on: Bacteroides fragilis clinical isolates; test: MIC distribution against clinical isolates; assay type: cell-based; conditions: 30 B. fragilis isolates
# Excerpt: (§1) As used herein, “minimum inhibitory concentration” or “MIC” refers to the lowest concentration of an antimicrobial agent, for example, an antimicrobial agent as described herein, required to inhibit the growth of an organism. […] “MIC90” represents the MIC value at which ≥90% of the strains within a test population are inhibited; the 90th percentile.
# (§2) Many susceptibility testing methods are known in the art and can be used as described herein (see, e.g., Jorgensen and Ferraro (2009) Clinical Infectious Diseases 49:1749-1755; and Maurer et al. (2017) Infectious Disease Reports 9:6839; the entire contents of each of the foregoing are incorporated herein by reference). For example, antimicrobial susceptibility can be determined using conventional culture based methods such as the broth or agar dilution test. In these dilution tests, the bacterial isolate of interest is inoculated onto different media that include serial dilutions of an antimicrobial agent, and incubated under appropriate conditions (e.g., overnight at 37° C.) to allow for growth to occur. Following the incubation period, the media is examined to determine bacterial growth. The lowest concentration of antibiotic that prevents growth represents the minimal inhibitory concentration (MIC). Broth dilution tests can be miniaturized and mechanized allowing for reproducibility and high throughput.
# [2] = tested on: Streptococcus agalactiae clinical isolates; test: MIC distribution against clinical isolates; assay type: cell-based
# Excerpt: as §1, §2
# [3] = tested on: Clostridium spp. clinical isolates; test: MIC distribution against clinical isolates; assay type: cell-based; conditions: MIC 8 μg/mL; 10 Clostridium spp. isolates
# Excerpt: (n=4 C. sporogenes, n=2 C. ramosum and n=4 C. innocuum) clinical isolates (μg/mL).
# as §1, §2
# [4] = tested on: Veillonella spp. clinical isolates; test: MIC distribution against clinical isolates; assay type: cell-based; conditions: 30 Veillonella spp. isolates
# Excerpt: (n=19 V. parvula, n=9 Veillonella spp., n=1 Veillonella dispr., n=1 V. atypica) clinical isolates (μg/mL).
# as §1, §2
# S. pneumoniae ATCC 49619 = test: Broth microdilution MIC (time-kill study); assay type: cell-based, Streptococcus pneumoniae
# E. coli ATCC 25922 = test: Time-kill assay; assay type: cell-based, Escherichia coli; conditions: 2×, 4×, 8× MIC; 2, 6, 24 hr
# B. ovatus MMX 3503 = test: Time-kill assay; assay type: cell-based, Bacteroides ovatus
# B. fragilis ATCC 25285 = conditions: B. fragilis MMX 123 ATCC 25285; cited from earlier work
# [5] = MIC 1 μg/mL, 20 S. agalactiae isolates
Molecule,Number of test isolates at MIC ([1]; MIC 1 μg/mL),Cumulative percentage of isolates inhibited at MIC ([1]; MIC >32 μg/mL) [%],Number of test isolates at MIC ([1]; MIC >32 μg/mL),Cumulative percentage of isolates inhibited at MIC ([2]; listed as RFX),Cumulative percentage of isolates inhibited at MIC [3] [%],Number of test isolates at MIC [3],Cumulative percentage of isolates inhibited at MIC ([4]; MIC 1 μg/mL) [%],Number of test isolates at MIC ([4]; MIC 1 μg/mL),Cumulative percentage of isolates inhibited at MIC ([4]; MIC 8 μg/mL) [%],Number of test isolates at MIC ([4]; MIC 8 μg/mL),MIC (S. pneumoniae ATCC 49619; S. pneumoniae ATCC 49619) [µg/mL],MIC (S. pneumoniae ATCC 49619; broth microdilution) [µg/mL],time-kill kinetics outcome (bactericidal = ≥3 log reduction in CFU per mL) (E. coli ATCC 25922),"time-kill kinetics outcome (bactericidal = ≥3 log reduction in CFU per mL) (B. ovatus MMX 3503; 2×, 4×, 8× MIC, 2, 6, 24, 48 hr)",rapid killing (B. ovatus MMX 3503; 6 hr) [log10 CFU],"Cumulative percentage of isolates inhibited at MIC [2, 5] [%]","Number of test isolates at MIC [2, 5]","MIC (S. pneumoniae ATCC 49619; Streptococcus pneumoniae, ATCC49619, S. pneumoniae ATCC 49619, read-out: MIC) [µg/mL]",CLSI QC range (MIC) (B. fragilis ATCC 25285)
CO[C@H]1/C=C/O[C@@]2(C)Oc3c(C)c(O)c4c(O)c(c5c(nc6cc(C)ccn65)c4c3C2=O)NC(=O)/C(C)=C\C=C\[C@H](C)[C@H](O)[C@@H](C)[C@@H](O)[C@@H](C)[C@H](OC(C)=O)[C@@H]1C [rifaximin],1,100.0,1,75.0% and 100.0%,20.0,1,10.0,1,93.3,7,0.06,0.06,bacteriostatic effect at 2-6 hr with regrowth between 6 and 24 hr,rebounded to no-drug control levels at later time points,~2,–,–,–,–
"CN[C@H](CC(C)C)C(=O)N[C@H]1C(=O)N[C@@H](CC(N)=O)C(=O)N[C@H]2C(=O)N[C@H]3C(=O)N[C@H](C(=O)N[C@H](C(=O)O)c4cc(O)cc(O)c4-c4cc3ccc4O)[C@H](O)c3ccc(c(Cl)c3)Oc3cc2cc(c3O[C@@H]2O[C@H](CO)[C@@H](O)[C@H](O)[C@H]2O[C@H]2C[C@](C)(N)[C@H](O)[C@H](C)O2)Oc2ccc(cc2Cl)[C@H]1O [vancomycin, Vancomycin]",–,–,–,–,–,–,–,–,–,–,–,–,–,–,–,100.0,1,0.25,–
piperacillin/tazobactam [piperacillin-tazobactam],–,–,–,–,–,–,–,–,–,–,1,–,–,–,–,–,–,–,(4-16) μg/mL
